# How the values were obtained:
# [1] = test system: healthy adults; conditions: relative to placebo; healthy adults who carried more higher-DA alleles; cited from earlier work
# [2] = test system: non-treatment-seeking AUD individuals; experiment: fMRI alcohol cue-reactivity task (alcohol cue-elicited ventral striatal activation); format: in vivo, human; set-up: VS Activation: effect size of interaction medication x genotype permutation: scale not given here; conditions: for Alcohol cue-elicited VS activation (ALC vs. BEV percent signal change): APZ relative to placebo, day 7; for VS Activation: effect size of interaction medication x genotype permutation: n = 81
# From the text: (§1) The study was an eight-day sub-acute dosing human laboratory investigation (ClinicalTrials.gov identifier: NCT01292057). After randomization to study medication, subjects underwent an fMRI alcohol cue-reactivity task on day 7 of medication ingestion and a bar-lab paradigm on day 8. To maximize cue-reactivity and motivation to drink, they were instructed to abstain from alcohol on the evenings of days 6 and 7.
# (§2) Randomization and medication. […] Subjects and investigators were blind to both genotype and medication assignment. Thus, subjects were stratified by their baseline Barratt Impulsiveness Scale (BIS-11) score (Patton et al., 1995) into groups with BIS-11 scores greater vs. less than the median score of 68 and randomization was conducted separately within each stratum. Urn variables balanced across medication groups within each stratum were sex and smoking status.
# Neuroimaging. On day 7, subjects were breathalyzed, assessed for alcohol withdrawal, and re-administered the OCDS. As noted above, one subject with a BAC>0 and two subjects with Clinical Institute Withdrawal Assessment for Alcohol-Revised scores >4 were excluded from scanning. After acquisition of a high-resolution anatomical image, subjects were given a sip (10 ml) of their preferred 80-proof liquor mixed with fruit juice and administered a 12-m-long task during which they passively viewed pseudo-randomly interspersed blocks of alcoholic beverage images (ALC; equally distributed between beer, wine, and liquor), nonalcoholic beverage images (BEV), blurred versions of these images that served as visual controls, and a fixation cross. Each 24-s-long block comprised only one image type and was followed by a 6-s period during which subjects were instructed to rate their urge for alcohol. Images were selected from a normative set, supplemented with images from advertisements, and matched for intensity, color, and complexity. This task consistently elicits robust cue-elicited VS activation among non-treatment-seeking AUD individuals.
# Functional images were acquired with a gradient echo, echo-planar imaging sequence implemented on a 3T TIM Trio scanner (Siemens, Erlangen, Germany). Acquisition parameters were: repetition/echo times=2200/35 ms; 328 volumes; flip angle=90°; field of view=192 mm; matrix=64×64; voxel size=3.0×3.0 mm; 36 contiguous 3.0-mm-thick transverse slices. Using FEAT (fMRI Expert Analysis Tool) v. 6.00, part of FSL (FMRIB Software Library, University of Oxford, United Kingdom), functional images were realigned to the middle volume, spatially smoothed (8-mm full width at half maximum kernel), resampled to 2-mm isotropic voxels, and registered, first to the subject's high-resolution anatomical image and subsequently to the Montreal Neurological Institute (MNI; Montréal, Canada) 152-subject-average template. Based on previous data indicating an interaction between DAT1/SLC6A3 genotype and naltrexone on alcohol cue-elicited VS activation, the right VS was defined a priori as a 6-mm-radius sphere centered at the point [12 15 −6] in MNI space. For each subject, this sphere was reverse-registered from the MNI-152 image to the subject's anatomical image, and the average percentage change of the blood-oxygen-level-dependent signal between ALC and BEV blocks (i.e., ALC vs. BEV percent signal change) was extracted.
# Statistical analysis. The general linear model (GLM; SPSS 23, IBM, Armonk, N.Y., United States of America) was used to test the interaction between medication and DAT1/SLC6A3 genotype on the primary outcomes (VS ALC vs. BEV activation and the number of drinks consumed in the bar lab). A model that included between-subjects factors for medication, DAT1/SLC6A3 genotype, and their interaction was tested for each outcome. Analyses first compared 9R carriers to 10R homozygotes, and subsequently examined the additive effect of the 9R allele. […] Significant interactions were followed up with simple effects contrasts. […]
# [3] = cited from earlier work
# [4] = test system: AUD; conditions: multisite AUD clinical trial; cited from earlier work
# [5] = test system: non-treatment-seeking AUD individuals; experiment: Bar-lab paradigm (alcohol self-administration); format: in vivo, human; conditions: for Bar Lab Drinks: effect size of interaction medication x genotype permutation: n = 94
# From the text: as §1, §2
# Bar-lab paradigm. […] Thirty minutes later, they were provided a standard caloric lunch, adjusted for gender and weight. At 2:00 PM, subjects were administered a priming drink of their preferred 80-proof liquor in a 1:3 ratio with juice, adjusted for gender, age, and weight to produce a targeted BAC of 30 mg %, and instructed to consume it within five minutes. Forty minutes later, subjects were presented a tray of four drinks, each with a targeted BAC of 15 mg %, and told they could consume as many as they desired over the next hour. After an hour, this tray was removed and another tray of four drinks was made available for consumption over a second hour. To create a decisional balance between drinking and abstaining, subjects were given a “bar credit” of $16 with which to “purchase” drinks, at the cost of $2/drink. After the procedure, subjects were given dinner and remained until 10:00 PM. A BAC measurement below 20 mg % was required before departure, and a friend or taxi drove subjects home.
# Statistical analysis. The general linear model (GLM; SPSS 23, IBM, Armonk, N.Y., United States of America) was used to test the interaction between medication and DAT1/SLC6A3 genotype on the primary outcomes (VS ALC vs. BEV activation and the number of drinks consumed in the bar lab). A model that included between-subjects factors for medication, DAT1/SLC6A3 genotype, and their interaction was tested for each outcome. Analyses first compared 9R carriers to 10R homozygotes, and subsequently examined the additive effect of the 9R allele. […] Significant interactions were followed up with simple effects contrasts. VS activation was also analyzed for correlation (Pearson's r) with day 7 OCDS scores and bar-lab drinking.
# The GLM was also used to test the interaction between medication and a DA-related genetic composite on the primary outcomes. The DAT1/SLC6A3 9R, COMT met, DRD2 T, and DRD4 long alleles were categorized as higher-DA alleles, and the total number of alleles each subject carried was calculated (Table 2). Few subjects carried more than four higher-DA alleles (four subjects had five alleles and one had seven), so these subjects were combined with those who carried four, yielding five groups of subjects with zero (n=7), one (n=15), two (n=31), three (n=22), or four or more (n=18) alleles. A model that included between-subjects factors for medication, the additive effect of the number of higher-DA alleles, and their interaction was tested for each outcome.
# [6] = test system: non-treatment-seeking AUD individuals; experiment: Adverse effects, physical symptom checklist; format: in vivo, human; conditions: for Number of subjects with insomnia severity Mild / Number of subjects with insomnia severity Moderate / Number of subjects with insomnia severity None / Number of subjects with insomnia severity Severe: APZ group
# From the text: Adverse effects. A physical symptom checklist was used to assess the presence and severity (self-rated as none, mild, moderate, or severe) of 21 possible adverse effects at baseline and on day 8 immediately before the bar-lab paradigm.
# For the secondary outcome (adverse effect severity), the GLM was first used to evaluate the main effect of medication on the presence/absence of each effect. […] To account for the influence of these effects on the pharmacogenetic interactions evaluated above, the presence/absence of each was evaluated as a covariate in all models.
# [7] = 9R carriers vs. 10R homozygotes, APZ vs. placebo
# [8] = DAT1 (additive effect of 9R alleles), APZ reduced more with more alleles
# [9] = DAT1 (additive effect of 9R alleles), APZ reduced more with more alleles, listed as aripiprazole
# [10] = DAT1 + COMT + DRD2 + DRD4 (higher-DA alleles composite)
smiles,measurement,setting,value
CCCN(CCC)CCc1cccc2c1CC(=O)N2 [ropinirole],Impulsive decisions,[1],increased impulsive decisions
"O=C1CCc2ccc(OCCCCN3CCN(c4cccc(Cl)c4Cl)CC3)cc2N1 [APZ, aripiprazole]",Effect size (partial η2) of interaction medication x DAT1/SLC6A3 genotype on VS activation,[2]; [7],0.061
same,Alcohol cue-elicited VS activation (ALC vs. BEV percent signal change),[2]; DAT1/SLC6A3 9R carriers,reduced VS activation
same,Alcohol cue-elicited VS activation (ALC vs. BEV percent signal change),[2]; DAT1/SLC6A3 10R homozygotes,increased it
same,VS Activation: effect size of interaction medication x genotype permutation,[2]; [8],0.067
same,VS Activation: effect size of interaction medication x genotype permutation,[2]; [9],0.063
same,VS Activation: effect size of interaction medication x genotype permutation,[2]; [10],0.051
same,VS Activation: effect size of interaction medication x genotype permutation,[2]; DAT1 + COMT + DRD2,0.026
same,VS Activation: effect size of interaction medication x genotype permutation,[2]; DAT1 + DRD2 + DRD4,0.084
same,VS Activation: effect size of interaction medication x genotype permutation,[2]; DAT1 + DRD2,0.068
same,VS Activation: effect size of interaction medication x genotype permutation,[2]; DAT1 + DRD4,0.077
same,Euphoric effects of alcohol drinking,[3]; natural environment or bar-lab setting,reduce
same,Alcohol cue-elicited VS activation,[3]; reported earlier,reduce
same,Alcohol consumption biomarker,[4],significantly improve
same,Drinks per drinking day,[4],significantly improve
same,Primary drinking outcome (percent days abstinent),[4],did not significantly change
same,Effect size (partial η2) of interaction medication x DAT1/SLC6A3 genotype on bar-lab drinking,[5]; [7],0.064
same,Bar-lab drinking (number of drinks consumed),"[5]; APZ relative to placebo, DAT1/SLC6A3 9R carriers, day 8",reduced drinking
same,Effect size (partial η2) of main effect of medication on bar-lab drinking,"[5]; APZ vs. placebo, all subjects",0.049
same,Bar Lab Drinks: effect size of interaction medication x genotype permutation,[5]; [8],0.068
same,Bar Lab Drinks: effect size of interaction medication x genotype permutation,[5]; [9],0.050
same,Bar Lab Drinks: effect size of interaction medication x genotype permutation,[5]; [10],0.069
same,Bar Lab Drinks: effect size of interaction medication x genotype permutation,[5]; DAT1 + COMT + DRD2,0.100
same,Bar Lab Drinks: effect size of interaction medication x genotype permutation,[5]; DAT1 + COMT + DRD4,0.071
same,Bar Lab Drinks: effect size of interaction medication x genotype permutation,[5]; DAT1 + COMT,0.079
same,Bar Lab Drinks: effect size of interaction medication x genotype permutation,[5]; DAT1 + DRD2 + DRD4,0.072
same,Bar Lab Drinks: effect size of interaction medication x genotype permutation,[5]; DAT1 + DRD2,0.081
same,Bar Lab Drinks: effect size of interaction medication x genotype permutation,[5]; DAT1 + DRD4,0.045
same,Effect size (partial η2) of simple effect of medication on bar-lab drinking,"[5]; among DAT1/SLC6A3 9R carriers, APZ vs. placebo",0.12
same,Effect size (partial η2) of simple effect of medication on bar-lab drinking,"[5]; among subjects with four or more higher-DA alleles, APZ vs. placebo",0.15
same,Number of subjects with insomnia severity Mild,[6]; 9R carriers,11
same,Number of subjects with insomnia severity Moderate,[6]; 9R carriers,6
same,Number of subjects with insomnia severity None,[6]; 9R carriers,11
same,Number of subjects with insomnia severity Severe,[6]; 9R carriers,0
same,Number of subjects with insomnia severity Mild,[6]; 10R homozygotes,8
same,Number of subjects with insomnia severity Moderate,[6]; 10R homozygotes,4
same,Number of subjects with insomnia severity None,[6]; 10R homozygotes,2
same,Number of subjects with insomnia severity Severe,[6]; 10R homozygotes,4
same,"Frequency of insomnia, daytime sleepiness, irritability, trouble concentrating, nausea/vomiting, dizziness, fatigue, blurry vision, difficulty reaching orgasm","[6]; APZ group vs. placebo, p<0.05, day 8",significantly more frequent
same,Insomnia severity,"[6]; APZ relative to placebo, DAT1/SLC6A3 9R carriers",did not
same,Insomnia severity,"[6]; APZ relative to placebo, DAT1/SLC6A3 10R homozygotes",more severe insomnia
same,Insomnia severity,"[6]; among subjects who received APZ, with a greater number of higher-DA alleles",less severe

# Source: patent US20180369238A1, “DOPAMINE AGONISTS IN TREATING ALCOHOL USE DISORDERS ASSOCIATED WITH DOPAMINE RECEPTOR ACTIVITY” (MUSC Foundation for Research Development, priority 2017, published 2018)
